The compounds below were run against T1, Human HPK1, catalytic domain (Homo sapiens, UniProt Q92918) (assay: HPK1-SLP76 TR-FRET Assay). Details: 75 pM HPK1, ATP 10 uM, SLP76 10 nM, 30 min pre-incubation, 60 min reaction.
T1 sequence (Q92918 1-346): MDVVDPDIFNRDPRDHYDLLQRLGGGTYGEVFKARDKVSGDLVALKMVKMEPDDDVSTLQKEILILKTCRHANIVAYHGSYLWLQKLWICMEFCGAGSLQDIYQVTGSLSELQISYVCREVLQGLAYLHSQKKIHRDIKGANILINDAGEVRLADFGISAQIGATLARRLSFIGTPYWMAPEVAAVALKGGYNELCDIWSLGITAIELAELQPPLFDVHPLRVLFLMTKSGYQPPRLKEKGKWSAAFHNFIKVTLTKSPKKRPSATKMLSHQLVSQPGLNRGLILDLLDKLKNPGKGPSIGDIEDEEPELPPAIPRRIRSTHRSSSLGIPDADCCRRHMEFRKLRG
Assay type: biochemical

How did the IC50 turn out when `Cc1c(-c2c(F)c(N)c3cnc(Nc4ccc5c(c4)CN(C)CC5)nc3c2Cl)cnc2c1NCCO2` [Compound 2-95, (+ or −)-8-chloro-6-fluoro-7-(8-methyl-2,3-dihydro-1H-pyrido[2,3-b][1,4]oxazin-7-yl)-N~2~- (2-methyl-1,2,3,4-tetrahydroisoquinolin-7-yl)quinazoline-2,5-diamine] was run?
The IC50 was 0.0589 nM.

With `Cc1c(-c2c(F)c(N)c3cnc(Nc4ccc5c(c4)CN(C(C)C)CC5)nc3c2Cl)cnc2c1NCCO2` [Compound 2-96, (+ or −)-8-chloro-6-fluoro-7-(8-methyl-2,3-dihydro-1H-pyrido[2,3-b[1,4]oxazin-7-yl)-N~2~- [2-(propan-2-yl)-1,2,3,4-tetrahydroisoquinolin-7-yl]quinazoline-2,5-diamine] as the compound, how does the IC50 read?
Its IC50 is 0.0825 nM.

For `CNC(=O)c1ccc(Nc2ncc3c(N)c(F)c(-c4cnc5c(c4C)NCCO5)c(Cl)c3n2)c(OC)c1` [Compound 2-97, (+ or −)-4-{[5-amino-8-chloro-6-fluoro-7-(8-methyl-2,3-dihydro-1H-pyrido[2,3-b][1,4]oxazin-7-yl)quinazolin-2-yl]amino}-3-methoxy-N-methylbenzamide], which IC50 is on record?
The IC50 was 0.679 nM.

Which IC50 does the source give for `CNC(=O)c1ccc(Nc2ncc3c(N)c(F)c(-c4c(Cl)nc5c(c4C)NCCO5)c(Cl)c3n2)c(OC)c1` [Compound 2-98, (+ or −)-4-{[5-amino-8-chloro-7-(6-chloro-8-methyl-2,3-dihydro-1H-pyrido[2,3-b][1,4]oxazin-7-yl)-6-fluoroquinazolin-2-yl]amino}-3-methoxy-N-methylbenzamide] here?
Its IC50 is 6.73 nM.

How did the IC50 turn out when `Cc1c(-c2c(F)c(N)c3cnc(Nc4ccc5c(c4)CN(C)CC54CC4)nc3c2Cl)cnc2c1NCCO2` [Compound 2-100, (+ or −)-8-chloro-6-fluoro-7-(8-methyl-2,3-dihydro-1H-pyrido[2,3-b][1,4]oxazin-7-yl)-N~2~- (2′-methyl-2′,3′-dihydro-1′H-spiro[cyclopropane-1,4′-isoquinolin]-7′-yl)quinazoline-2,5-diamine] was run?
Its IC50 is 1.19 nM.

Which IC50 does the source give for `COc1cc2c(cc1Nc1ncc3c(N)c(F)c(-c4cnc5c(c4C)NCCO5)c(Cl)c3n1)CN(C(C)C)CC2` [Compound 2-102, (+ or −)-8-chloro-6-fluoro-N~2~-[6-methoxy-2-(propan-2-yl)-1,2,3,4-tetrahydroisoquinolin-7-yl]-7-(8-methyl-2,3-dihydro-1H-pyrido[2,3-b][1,4]oxazin-7-yl)quinazoline-2,5-diamine] here?
Its IC50 is 0.204 nM.

For `Cc1c(-c2c(F)c(N)c3cnc(Nc4ccc(S(C)(=O)=O)cc4)nc3c2Cl)cnc2c1NCCO2` [Compound 2-103, (+ or −)-8-chloro-6-fluoro-7-(8-methyl-2,3-dihydro-1H-pyrido[2,3-b][1,4]oxazin-7-yl)-N~2~- [4-(methylsulfonyl)phenyl] quinazoline-2,5-diamine], which IC50 is on record?
The IC50 was 0.0946 nM.

For `COc1cc2c(cc1Nc1ncc3c(N)c(F)c(-c4cnc5c(c4C)NCCO5)c(Cl)c3n1)CN(C)CC2(C)C` [Compound 2-104, 8-chloro-6-fluoro-N2-(6-methoxy-2,4,4-trimethyl-1,2,3,4-tetrahydroisoquinolin-7-yl)-7-(8-methyl-2,3-dihydro-1H-pyrido[2,3-b][1,4]oxazin-7-yl)quinazoline-2,5-diamine], which IC50 is on record?
Its IC50 is 0.795 nM.

`COc1cc2c(cc1Nc1ncc3c(N)c(F)c(-c4cnc5c(c4C)NCCO5)c(Cl)c3n1)CN(C(C)C)CC2` [Compound 2-106, (+ or −)-8-chloro-6-fluoro-N2-(2-isopropyl-6-methoxy-1,2,3,4-tetrahydroisoquinolin-7-yl)-7-(8-methyl-2,3-dihydro-1H-pyrido[2,3-b][1,4]oxazin-7-yl)quinazoline-2,5-diamine] was tested. Which IC50 did it give?
Its IC50 is 5.76 nM.

Which IC50 does the source give for `Cc1c(-c2c(F)c(N)c3cnc(Nc4cc5c(cc4F)CCN(C)C5)nc3c2Cl)cnc2c1NCCO2` [Compound 2-107, (+ or −)-8-chloro-6-fluoro-N2-(6-fluoro-2-methyl-1,2,3,4-tetrahydroisoquinolin-7-yl)-7-(8-methyl-2,3-dihydro-1H-pyrido[2,3-b][1,4]oxazin-7-yl)quinazoline-2,5-diamine] here?
Its IC50 is 0.0862 nM.

How did the IC50 turn out when `Cc1c(-c2c(F)c(N)c3cnc(Nc4ccc5c(c4)CN(C)CC54CC4)nc3c2C#N)cnc2c1NCCO2` [Compound 2-109, (+ or −)-5-amino-6-fluoro-2-((2′-methyl-2′,3′-dihydro-1′H-spiro[cyclopropane-1,4′-isoquinolin]-7′-yl)amino)-7-(8-methyl-2,3-dihydro-1H-pyrido[2,3-b][1,4]oxazin-7-yl)quinazoline-8-carbonitrile] was run?
Its IC50 is 0.0528 nM.

`Cc1c(-c2c(F)c(N)c3cnc(Nc4ccc5c(c4)CN(C)CC54CC4)nc3c2C)cnc2c1NCCO2` [Compound 2-110, (+ or −)-6-fluoro-8-methyl-N2-(2′-methyl-2′,3′-dihydro-1′H-spiro[cyclopropane-1,4′-isoquinolin]-7′-yl)-7-(8-methyl-2,3-dihydro-1H-pyrido[2,3-b][1,4]oxazin-7-yl)quinazoline-2,5-diamine] was tested. Which IC50 did it give?
The IC50 was 0.0706 nM.

`Cc1c(-c2c(F)c(N)c3cnc(Nc4ccc5c(c4)CN(C)CC54CC4)nc3c2Br)cnc2c1NCCO2` [Compound 2-111, (+ or −)-8-bromo-6-fluoro-7-(8-methyl-2,3-dihydro-1H-pyrido[2,3-b][1,4]oxazin-7-yl)-N~2~- (2′-methyl-2′,3′-dihydro-1′H-spiro[cyclopropane-1,4′-isoquinolin]-7′-yl)quinazoline-2,5-diamine] was tested. Which IC50 did it give?
The IC50 was 0.0199 nM.

`Cc1c(-c2c(F)c(N)c3cnc(Nc4ccc5c(c4)CN(C(C)C)CC5)nc3c2Cl)cnc2c1NCCO2` [Compound 2-112, 8-chloro-6-fluoro-N2-(2-isopropyl-1,2,3,4-tetrahydroisoquinolin-7-yl)-7-(8-methyl-2,3-dihydro-1H-pyrido[2,3-b][1,4]oxazin-7-yl)quinazoline-2,5-diamine] was tested. Which IC50 did it give?
The IC50 was 0.816 nM.

How did the IC50 turn out when `Cc1c(-c2cc3nc(Nc4ccc(CS(C)(=O)=O)c(F)c4)ncc3c(N)c2F)cnc2c1NCCO2` [Compound 2-114, 6-fluoro-N~2~-{3-fluoro-4-[(methanesulfonyl)methyl]phenyl}-7-(8-methyl-2,3-dihydro-1H-pyrido[2,3-b][1,4]oxazin-7-yl)quinazoline-2,5-diamine] was run?
The IC50 was 0.0654 nM.

With `Cc1c(-c2cc3nc(Nc4ccc(CS(=O)(=O)N5CCCC5)cc4)ncc3c(N)c2F)cnc2c1NCCO2` [Compound 2-115, 6-fluoro-7-(8-methyl-2,3-dihydro-1H-pyrido[2,3-b][1,4]oxazin-7-yl)-N~2~- {4-[(pyrrolidine-1-sulfonyl)methyl]phenyl} quinazoline-2,5-diamine] as the compound, how does the IC50 read?
Its IC50 is 0.12 nM.

How did the IC50 turn out when `Cc1c(-c2cc3nc(Nc4ccc(CCC#N)cc4)ncc3c(N)c2F)cnc2c1NCCO2` [Compound 2-116, 3-(4-{[5-amino-6-fluoro-7-(8-methyl-2,3-dihydro-1H-pyrido[2,3-b][1,4]oxazin-7-yl)quinazolin-2-yl]amino}phenyl)propane-nitrile] was run?
Its IC50 is 0.142 nM.

For `Cc1c(-c2cc3nc(Nc4ccc5c(c4)CN(C)CCC5)ncc3c(N)c2F)cnc2c1NCCO2` [Compound 2-117, 6-fluoro-7-(8-methyl-2,3-dihydro-1H-pyrido[2,3-b][1,4]oxazin-7-yl)-N~2~- (2-methyl-2,3,4,5-tetrahydro-1H-2-benzazepin-8-yl)quinazoline-2,5-diamine], which IC50 is on record?
Its IC50 is 0.0406 nM.

`Cc1c(-c2cc3nc(Nc4ccc5c(c4)COCC5)ncc3c(N)c2F)cnc2c1NCCO2` [Compound 2-118, N~2~-(3,4-dihydro-1H-2-benzopyran-7-yl)-6-fluoro-7-(8-methyl-2,3-dihydro-1H-pyrido[2,3-b][1,4]oxazin-7-yl)quinazoline-2,5-diamine] was tested. Which IC50 did it give?
The IC50 was 0.0607 nM.

With `Cc1c(-c2cc3nc(Nc4ccc5c(c4)CCN(C)CC5)ncc3c(N)c2F)cnc2c1NCCO2` [Compound 2-119, 6-fluoro-7-(8-methyl-2,3-dihydro-1H-pyrido[2,3-b][1,4]oxazin-7-yl)-N~2~- (3-methyl-2,3,4,5-tetrahydro-1H-3-benzazepin-7-yl)quinazoline-2,5-diamine] as the compound, how does the IC50 read?
Its IC50 is 0.038 nM.

With `Cc1c(-c2cc3nc(Nc4ccc5c(c4)CNCCC5)ncc3c(N)c2F)cnc2c1NCCO2` [Compound 2-120, 6-fluoro-7-(8-methyl-2,3-dihydro-1H-pyrido[2,3-b][1,4]oxazin-7-yl)-N~2~- (2,3,4,5-tetrahydro-1H-2-benzazepin-8-yl)quinazoline-2,5-diamine] as the compound, how does the IC50 read?
Its IC50 is 0.0066 nM.

Which IC50 does the source give for `Cc1c(-c2cc3nc(Nc4ccc5c(c4)C4CCC5N4C)ncc3c(N)c2F)cnc2c1NCCO2` (stereo not shown) [Compound 2-121, 6-fluoro-7-(8-methyl-2,3-dihydro-1H-pyrido[2,3-b][1,4]oxazin-7-yl)-N~2~- (9-methyl-1,2,3,4-tetrahydro-1,4-epiminonaphthalen-6-yl)quinazoline-2,5-diamine] here?
The IC50 was 0.0248 nM.

`Cc1ccncc1-c1cc2nc(Nc3ccc4c(c3)CN(C)CC4)ncc2c(N)c1F` [Compound 2-122, 6-fluoro-7-(4-methylpyridin-3-yl)-N~2~- (2-methyl-1,2,3,4-tetrahydroisoquinolin-7-yl)quinazoline-2,5-diamine] was tested. Which IC50 did it give?
Its IC50 is 0.22 nM.

How did the IC50 turn out when `CS(=O)(=O)Cc1ccc(Nc2ncc3c(N)c(F)c(-c4cnc5c(c4Cl)NCCO5)cc3n2)cc1` [Compound 2-123, 7-(8-chloro-2,3-dihydro-1H-pyrido[2,3-b][1,4]oxazin-7-yl)-6-fluoro-N2-(4-((methylsulfonyl)methyl)phenyl)quinazoline-2,5-diamine] was run?
The IC50 was 0.037 nM.

For `CN1CCc2ccc(Nc3ncc4c(N)c(F)c(-c5cnc6c(c5Cl)NCCO6)cc4n3)cc2C1` [Compound 2-124, 7-(8-chloro-2,3-dihydro-1H-pyrido[2,3-b][1,4]oxazin-7-yl)-6-fluoro-N~2~-(2-methyl-1,2,3,4-tetrahydroisoquinolin-7-yl)quinazoline-2,5-diamine], which IC50 is on record?
Its IC50 is 0.0474 nM.
